{"source": "paper PMC7156458", "about": "“Synthetic biology based construction of biological activity-related library of fungal decalin-containing diterpenoid pyrones” (Nature Communications, 2020)", "key": {"[1]": {"system": "MCF-7 cells", "assay": "cell cytotoxic effects against MCF-7 cells (72 h), A490", "format": "cell-based, human"}, "[2]": {"system": "SNB-75", "assay": "cells", "parameters": "species or system JFCR39 human cancer cell lines; JFCR39 panel growth inhibition, sulforhodamine B total protein after 48 h", "conditions": "Homo sapiens, SNB-75, 48 h", "method": "Supplementary Note 24. Antiproliferative effects across the panel of JFCR39 cancer cell lines A panel of 39 human cancer cell lines, termed JFCR39, were previously described13-16. Cells were grown in RPMI-1640 (FUJIFILM Wako Pure Chemical Corporation, Tokyo, Japan) supplemented with 1 µg mL-1 kanamycin and 5% (v/v) fetal bovine serum (Nichirei Biosciences Inc, Tokyo, Japan) and incubated at 37°C in a humidified atmosphere supplemented with 5% CO2. Drug efficacy was assessed as changes in total cellular protein after 48 hours of drug treatment using a sulforhodamine B assay. Assays were done in duplicate and the GI50 was calculated as described previously13,16. The antitumor profile across the JFCR39 panel, or fingerprints were then compared to reference database containing ~2000 compounds by COMPARE algorithm16,17. Initially, we evaluated new DDP analogues for their antiproliferative activities across the panel of 39 human cancer cell lines, JFCR39[50],[51]."}, "[3]": {"system": "DL1 cells", "assay": "cytotoxicity in Drosophila DL1 cells", "format": "cell-based", "conditions": "DL1 cells; for % viability, viability 2: replicate 2, relative to DMSO 1%; for % viability, viability 1: replicate 1, relative to DMSO 1%; for IC50: cytotoxicity", "method": "(§1) We screened the DDPs on the Drosophila assay system for cytotoxicity, inhibitory activity of innate immune signalling and insecticidal activity. The cytotoxicity of the DDPs was evaluated using two cell lines, embryonic macrophage-derived DL1 cells[58]–[60] and larval blood cell-derived l(2)mbn cells, and their IC50 values are listed in Supplementary Table 23."}, "[4]": {"assay": "cytotoxicity in Drosophila DL1 cells", "format": "cell-based", "conditions": "Drosophila, DL1 cells", "method": "as §1"}, "[5]": {"system": "l(2)mbn cells", "assay": "cytotoxicity in Drosophila l(2)mbn cells", "format": "cell-based", "conditions": "for Luminescence Raw1: replicate 1; for Luminescence Raw2: replicate 2; for % viability, viability 2: replicate 2, relative to DMSO 1%; for % viability, viability 1: replicate 1, relative to DMSO 1%", "method": "as §1"}, "[6]": {"assay": "cytotoxicity in Drosophila l(2)mbn cells", "format": "cell-based", "conditions": "Drosophila", "method": "as §1"}, "[7]": {"conditions": "replicate 1, relative to DMSO 1%, read-out: % viability, viability 1"}, "[8]": {"conditions": "replicate 2, relative to DMSO 1%, read-out: % viability, viability 2"}}, "note": "Like-named read-outs stand apart in the source and are kept apart here."}
{"smiles": "C=C1CCC2C(C)(CCC=C(C)C)C(O)CCC2(C)C1Cc1c(OC)oc(C)c(C)c1=O", "note": "(stereo not shown) [Compound 11]", "values": [{"measurement": "cytotoxicity against the bulk of MCF-7 cells", "setting": "[1]", "result": "dose-dependent cytotoxicity"}, {"measurement": "viability at 0.1 µM", "setting": "[1]; Homo sapiens, MCF7, 72 h, MCF-7, 72 h, 0.1 µM (DMSO 0.002%), read-out: A490 (control =1) ave", "result": 92.2, "unit": "%"}, {"measurement": "viability at 1 µM", "setting": "[1]; Homo sapiens, MCF7, 72 h, MCF-7, 72 h, 1 µM (DMSO 0.02%), read-out: A490 (control =1) ave", "result": 34.3, "unit": "%"}, {"measurement": "viability at 10 µM", "setting": "[1]; Homo sapiens, MCF7, 72 h, MCF-7, 72 h, 10 µM (DMSO 0.2%), read-out: A490 (control =1) ave", "result": 21.4, "unit": "%"}, {"measurement": "A490 ave", "setting": "[1]; MCF-7, 72 h, 0.1 µM (DMSO 0.002%), control 1.064", "result": 0.981}, {"measurement": "A490 ave", "setting": "[1]; MCF-7, 72 h, 1 µM (DMSO 0.02%), control 1.104", "result": 0.379}, {"measurement": "A490 ave", "setting": "[1]; MCF-7, 72 h, 10 µM (DMSO 0.2%), control 1.049", "result": 0.224}, {"measurement": "GI50", "setting": "[2]", "result": 27800, "unit": "nM"}, {"measurement": "Luminescence Raw1", "setting": "[3]; 0.04 µM, replicate 1", "result": 2962736}, {"measurement": "Luminescence Raw2", "setting": "[3]; 0.04 µM, replicate 2", "result": 2763628}, {"measurement": "Luminescence Raw1", "setting": "[3]; 0.2 µM, replicate 1", "result": 2626203}, {"measurement": "Luminescence Raw2", "setting": "[3]; 0.2 µM, replicate 2", "result": 2499962}, {"measurement": "% viability, viability 2", "setting": "[3]; 0.2 µM", "result": 182.283, "unit": "%"}, {"measurement": "Luminescence Raw1", "setting": "[3]; 1 µM, replicate 1", "result": 427059}, {"measurement": "% viability, viability 1", "setting": "[3]; 1 µM", "result": 31.1387, "unit": "%"}, {"measurement": "Luminescence Raw2", "setting": "[3]; 1 µM, replicate 2", "result": 482949}, {"measurement": "% viability, viability 2", "setting": "[3]; 1 µM", "result": 35.2139, "unit": "%"}, {"measurement": "Luminescence Raw1", "setting": "[3]; 4 µM, replicate 1", "result": 281027}, {"measurement": "% viability, viability 1", "setting": "[3]; 4 µM", "result": 20.4909, "unit": "%"}, {"measurement": "Luminescence Raw2", "setting": "[3]; 4 µM, replicate 2", "result": 305186}, {"measurement": "% viability, viability 2", "setting": "[3]; 4 µM", "result": 22.2524, "unit": "%"}, {"measurement": "Luminescence Raw1", "setting": "[3]; 10 µM, replicate 1", "result": 281749}, {"measurement": "Luminescence Raw2", "setting": "[3]; 10 µM, replicate 2", "result": 304825}, {"measurement": "Luminescence Raw1", "setting": "[3]; 20 µM, replicate 1", "result": 307710}, {"measurement": "Luminescence Raw2", "setting": "[3]; 20 µM, replicate 2", "result": 306988}, {"measurement": "IC50", "setting": "[3]; average±SEM", "result": "400 ± 20", "unit": "nM"}, {"measurement": "IC50", "setting": "[3]; read-out: IC50 (1), replicate 1", "result": 380, "unit": "nM"}, {"measurement": "IC50", "setting": "[3]; read-out: IC50 (2), replicate 2", "result": 414, "unit": "nM"}, {"measurement": "IC50", "setting": "[3]; read-out: IC50 Average, average of two replicates", "result": 397, "unit": "nM"}, {"measurement": "viability at 0.04 µM", "setting": "[4]; [7]", "result": 216, "unit": "%"}, {"measurement": "viability at 0.04 µM", "setting": "[4]; [8]", "result": 202, "unit": "%"}, {"measurement": "viability at 0.2 µM", "setting": "[4]; 0.2 µM, replicate 1, relative to DMSO 1%, read-out: % viability, viability 1", "result": 191, "unit": "%"}, {"measurement": "viability at 10 µM", "setting": "[4]; [7]", "result": 20.5, "unit": "%"}, {"measurement": "viability at 10 µM", "setting": "[4]; [8]", "result": 22.2, "unit": "%"}, {"measurement": "viability at 20 µM", "setting": "[4]; [7]", "result": 22.4, "unit": "%"}, {"measurement": "viability at 20 µM", "setting": "[4]; [8]", "result": 22.4, "unit": "%"}, {"measurement": "Luminescence Raw1", "setting": "[5]; 0.04 µM", "result": 4909467}, {"measurement": "Luminescence Raw2", "setting": "[5]; 0.04 µM", "result": 3629794}, {"measurement": "% viability, viability 2", "setting": "[5]; 0.04 µM", "result": 57.8063, "unit": "%"}, {"measurement": "Luminescence Raw1", "setting": "[5]; 0.2 µM", "result": 5752008}, {"measurement": "Luminescence Raw2", "setting": "[5]; 0.2 µM", "result": 4449089}, {"measurement": "Luminescence Raw1", "setting": "[5]; 1 µM", "result": 2597064}, {"measurement": "% viability, viability 1", "setting": "[5]; 1 µM", "result": 41.3596, "unit": "%"}, {"measurement": "Luminescence Raw2", "setting": "[5]; 1 µM", "result": 1297263}, {"measurement": "% viability, viability 2", "setting": "[5]; 1 µM", "result": 20.6596, "unit": "%"}, {"measurement": "Luminescence Raw1", "setting": "[5]; 4 µM", "result": 133995}, {"measurement": "% viability, viability 1", "setting": "[5]; 4 µM", "result": 2.134, "unit": "%"}, {"measurement": "Luminescence Raw2", "setting": "[5]; 4 µM", "result": 142288}, {"measurement": "% viability, viability 2", "setting": "[5]; 4 µM", "result": 2.266, "unit": "%"}, {"measurement": "Luminescence Raw1", "setting": "[5]; 10 µM", "result": 107674}, {"measurement": "% viability, viability 1", "setting": "[5]; 10 µM", "result": 1.715, "unit": "%"}, {"measurement": "Luminescence Raw2", "setting": "[5]; 10 µM", "result": 99742}, {"measurement": "% viability, viability 2", "setting": "[5]; 10 µM", "result": 1.588, "unit": "%"}, {"measurement": "Luminescence Raw1", "setting": "[5]; 20 µM", "result": 126784}, {"measurement": "Luminescence Raw2", "setting": "[5]; 20 µM", "result": 170772}, {"measurement": "IC50", "setting": "[5]; cytotoxicity, average±SEM", "result": "470 ± 210", "unit": "nM"}, {"measurement": "IC50", "setting": "[5]; read-out: IC50 (1), cytotoxicity, replicate 1", "result": 681, "unit": "nM"}, {"measurement": "IC50", "setting": "[5]; read-out: IC50 (2), cytotoxicity, replicate 2", "result": 259, "unit": "nM"}, {"measurement": "IC50", "setting": "[5]; read-out: IC50 Average, cytotoxicity, average of two replicates", "result": 470, "unit": "nM"}, {"measurement": "viability at 0.04 µM", "setting": "[6]; 0.04 µM, replicate 1, relative to DMSO 1%, read-out: % viability, viability 1", "result": 78.2, "unit": "%"}, {"measurement": "viability at 0.2 µM", "setting": "[6]; [7]", "result": 91.6, "unit": "%"}, {"measurement": "viability at 0.2 µM", "setting": "[6]; [8]", "result": 70.9, "unit": "%"}, {"measurement": "viability at 20 µM", "setting": "[6]; [7]", "result": 2.02, "unit": "%"}, {"measurement": "viability at 20 µM", "setting": "[6]; [8]", "result": 2.72, "unit": "%"}]}
